Consider 16 compounds from US20260297080A1, “BICYCLIC COMPOUNDS AS CDK INHIBITORS” (BeOne Medicines I GmbH, priority 2022, published 2026).

One assay addresses CDK1/Cyclin B1 (Homo sapiens, UniProt P06493). As to the kind of experiment: CDK1/Cyclin B1 Biochemical Assay (TR-FRET), 0.015 mM ATP. Conditions: 0.15 μM Rb (Ser780)-biotin substrate, pH7.0, 60 min preincubation, 120 min reaction, room temperature. The procedure, abridged: (§1)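 Inhibitor concentrations up to 10 μM were preincubated with each cyclin–kinase complex for 60 minutes before ATP and biotinylated Rb (Ser780) substrate (0.15 μM) were added. After 120 minutes at room temperature, phosphorylation was quantified by HTRF and IC50 values were fitted with a four-parameter logistic equation.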
On the technique in general: In TR-FRET formats the signal depends on donor and acceptor labels being close together.

In another assay the target is CDK2/Cyclin E1 (Homo sapiens, UniProt P24941). The assay is described as follows: CDK2/Cyclin E1 Biochemical Assay (TR-FRET), 0.060 mM ATP. Conditions: 0.15 μM Rb (Ser780)-biotin substrate, pH7.0, 60 min preincubation, 120 min reaction, room temperature. Summed up:
as §1

Chain of CDK1/Cyclin B1 (P06493 whole entry): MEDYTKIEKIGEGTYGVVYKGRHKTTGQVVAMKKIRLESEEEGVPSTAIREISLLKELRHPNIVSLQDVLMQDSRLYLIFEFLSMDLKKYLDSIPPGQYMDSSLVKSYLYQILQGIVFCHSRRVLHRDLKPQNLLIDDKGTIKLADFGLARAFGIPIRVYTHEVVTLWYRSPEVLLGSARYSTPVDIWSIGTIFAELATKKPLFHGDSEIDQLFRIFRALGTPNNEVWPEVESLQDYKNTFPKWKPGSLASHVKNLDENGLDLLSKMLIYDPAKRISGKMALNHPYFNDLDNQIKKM
Chain of CDK1/Cyclin B1 (P14635 whole entry partner): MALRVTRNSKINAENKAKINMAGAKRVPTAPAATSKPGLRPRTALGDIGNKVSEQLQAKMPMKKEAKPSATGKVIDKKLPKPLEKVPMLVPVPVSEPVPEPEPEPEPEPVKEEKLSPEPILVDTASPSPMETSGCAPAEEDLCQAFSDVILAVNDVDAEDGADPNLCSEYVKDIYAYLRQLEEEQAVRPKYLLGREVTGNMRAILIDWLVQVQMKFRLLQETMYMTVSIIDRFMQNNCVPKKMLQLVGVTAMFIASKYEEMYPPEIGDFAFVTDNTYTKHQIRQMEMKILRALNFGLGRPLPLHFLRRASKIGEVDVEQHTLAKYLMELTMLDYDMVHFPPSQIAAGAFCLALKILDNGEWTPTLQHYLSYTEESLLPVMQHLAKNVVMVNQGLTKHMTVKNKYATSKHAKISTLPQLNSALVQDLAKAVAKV

The IC50 is the concentration at which inhibition is half-maximal. On to `CC1(NC(=O)O[C@H]2CC[C@@H](c3cc(Nc4ccc5c(c4)CS(=O)(=O)N5)n[nH]3)C2)CCOCC1` (relative stereo) [Example 398, cis-3-(3-((2,2-dioxido-1,3-dihydrobenzo[c]isothiazol-5-yl)amino)-1H-pyrazol-5-yl)cyclopentyl(4-methyltetrahydro-2H-pyran-4-yl)carbamate], for which the figures for the half-inhibitory concentration (IC50) against CDK1/Cyclin B1 and against CDK2/Cyclin E1 were 53 nM and 4.9 nM, respectively.
On the same counts, the results for `COCC(C)(C)NC(=O)O[C@H]1CC[C@@H](c2cc(Nc3ccc4c(c3F)CS(=O)(=O)N4C3CC3)n[nH]2)C1` (relative stereo) [Example 401, cis-3-(3-((1-cyclopropyl-4-fluoro-2,2-dioxido-1,3-dihydrobenzo[c]isothiazol-5-yl)amino)-1H-pyrazol-5-yl)cyclopentyl(1-methoxy-2-methylpropan-2-yl)carbamate] are 105 nM and 2.1 nM.
For `CC1(NC(=O)O[C@H]2CC[C@@H](c3cc(Nc4ccc5c(c4F)CS(=O)(=O)N5)n[nH]3)C2)CCOCC1` (relative stereo) [Example 402, cis-3-(3-((4-fluoro-2,2-dioxido-1,3-dihydrobenzo[c]isothiazol-5-yl)amino)-1H-pyrazol-5-yl)cyclopentyl(4-methyltetrahydro-2H-pyran-4-yl)carbamate], the IC50 at CDK1/Cyclin B1 came to 101 nM; at CDK2/Cyclin E1, 5.1 nM.
In the case of `CC(C)NC(=O)O[C@H]1CC[C@@H](c2cc(Nc3ccc4c(c3O)CNS4(=O)=O)n[nH]2)C1` (relative stereo) [Example 405, cis-3-(3-((4-hydroxy-1,1-dioxido-2,3-dihydrobenzo[d]isothiazol-5-yl)amino)-1H-pyrazol-5-yl)cyclopentyl isopropylcarbamate], the IC50 on CDK1/Cyclin B1 came out at 644 nM; on CDK2/Cyclin E1, 10 nM.
On the same counts, the results for `CC(C)NC(=O)O[C@H]1CC[C@@H](c2cc(Nc3c(F)cc4c(c3O)CNS4(=O)=O)n[nH]2)C1` (relative stereo) [Example 406, cis-3-(3-((6-fluoro-4-hydroxy-1,1-dioxido-2,3-dihydrobenzo[d]isothiazol-5-yl)amino)-1H-pyrazol-5-yl)cyclopentyl isopropylcarbamate] are more than 10000 nM and 601 nM.
On the same counts, the results for `CC1(NC(=O)O[C@H]2CC[C@@H](c3cc(Nc4ccc5c(c4F)CS(=O)(=O)N5CC(F)(F)F)n[nH]3)C2)CCOC1` (relative stereo) [Example 407, cis-3-(3-((4-fluoro-2,2-dioxido-1-(2,2,2-trifluoroethyl)-1,3-dihydrobenzo[c]isothiazol-5-yl)amino)-1H-pyrazol-5-yl)cyclopentyl(3-methyltetrahydrofuran-3-yl)carbamate] are 129 nM and 1.6 nM.
Turning to `O=C(NC1(CO)CCC1)O[C@H]1CC[C@@H](c2cc(Nc3cc4c(cc3F)NS(=O)(=O)C4)n[nH]2)C1` (relative stereo) [Example 408, cis-3-(3-((6-fluoro-2,2-dioxido-1,3-dihydrobenzo[c]isothiazol-5-yl)amino)-1H-pyrazol-5-yl)cyclopentyl(1-(hydroxymethyl)cyclobutyl)carbamate], the IC50 on CDK1/Cyclin B1 stood at 1100 nM; against CDK2/Cyclin E1, 35 nM.
Taken in the same sequence, the figures for `CC1(NC(=O)O[C@H]2CC[C@@H](c3cc(Nc4ccc5c(c4F)CS(=O)(=O)N5CC(F)(F)F)n[nH]3)C2)COC1` (relative stereo) [Example 409, cis-3-(3-((4-fluoro-2,2-dioxido-1-(2,2,2-trifluoroethyl)-1,3-dihydrobenzo[c]isothiazol-5-yl)amino)-1H-pyrazol-5-yl)cyclopentyl(3-methyloxetan-3-yl)carbamate] were 210 nM and 5.8 nM.
Taken in the same sequence, the figures for `CC(CC(F)(F)F)NC(=O)O[C@H]1CC[C@@H](c2cc(Nc3cc4c(cc3F)S(=O)(=O)NC4)n[nH]2)C1` (relative stereo) [Example 412, cis-3-(3-((6-fluoro-1,1-dioxido-2,3-dihydrobenzo[d]isothiazol-5-yl)amino)-1H-pyrazol-5-yl)cyclopentyl(4,4,4-trifluorobutan-2-yl)carbamate] were 147 nM and 1.8 nM.
On the same counts, the results for `CC(NC(=O)O[C@H]1CC[C@@H](c2cc(Nc3cc4c(cc3F)S(=O)(=O)NC4)n[nH]2)C1)C1CC1` (relative stereo) [Example 413, cis-3-(3-((6-fluoro-1,1-dioxido-2,3-dihydrobenzo[d]isothiazol-5-yl)amino)-1H-pyrazol-5-yl)cyclopentyl(1-cyclopropylethyl)carbamate] are 412 nM and 3.5 nM.
As to `O=C(NCC1CC1)O[C@H]1CC[C@@H](c2cc(Nc3ccc4c(c3F)CNS4(=O)=O)n[nH]2)C1` (relative stereo) [Example 414, cis-3-(3-((4-fluoro-1,1-dioxido-2,3-dihydrobenzo[d]isothiazol-5-yl)amino)-1H-pyrazol-5-yl)cyclopentyl(cyclopropylmethyl)carbamate], the 50% inhibitory concentration (IC50) on CDK1/Cyclin B1 is 232 nM; against CDK2/Cyclin E1, 7.3 nM.
Taken in the same sequence, the figures for `O=C(O[C@H]1CC[C@@H](c2cc(Nc3ccc4c(c3F)CS(=O)(=O)N4)n[nH]2)C1)N1CCOCC1` (relative stereo) [Example 415, cis-3-(3-((4-fluoro-2,2-dioxido-1,3-dihydrobenzo[c]isothiazol-5-yl)amino)-1H-pyrazol-5-yl)cyclopentyl morpholine-4-carboxylate] were 700 nM and 26 nM.
Consider `COCC(C)(C)NC(=O)O[C@H]1CC[C@@H](c2cc(Nc3ccc4c(c3F)CS(=O)(=O)N4CC(F)(F)F)n[nH]2)C1` (relative stereo) [Example 416, cis-3-(3-((4-fluoro-2,2-dioxido-1-(2,2,2-trifluoroethyl)-1,3-dihydrobenzo[c]isothiazol-5-yl)amino)-1H-pyrazol-5-yl)cyclopentyl(1-methoxy-2-methylpropan-2-yl)carbamate], for which the results for the half-maximal inhibitory concentration (IC50) against CDK1/Cyclin B1 and at CDK2/Cyclin E1 were 67 nM and 2.1 nM, respectively.
Taken in the same sequence, the figures for `O=C(NC1(CO)CCC1)O[C@H]1CC[C@@H](c2cc(Nc3ccc4c(c3)CS(=O)(=O)N4)n[nH]2)C1` (relative stereo) [Example 417, cis-3-(3-((2,2-dioxido-1,3-dihydrobenzo[c]isothiazol-5-yl)amino)-1H-pyrazol-5-yl)cyclopentyl(1-(hydroxymethyl)cyclobutyl)carbamate] were 18 nM and 3 nM.
As for `O=C(NC1(CO)CCC1)O[C@H]1CC[C@@H](c2cc(Nc3ccc4c(c3F)CS(=O)(=O)N4)n[nH]2)C1` (relative stereo) [Example 418, cis-3-(3-((4-fluoro-2,2-dioxido-1,3-dihydrobenzo[c]isothiazol-5-yl)amino)-1H-pyrazol-5-yl)cyclopentyl(1-(hydroxymethyl)cyclobutyl)carbamate], the figures for the half-maximal inhibitory concentration (IC50) on CDK1/Cyclin B1 and against CDK2/Cyclin E1 were 32 nM and 2 nM, respectively.
Consider `CC(C)NC(=O)O[C@H]1CC[C@@H](c2cc(Nc3cc4c(cc3F)CNS4(=O)=O)n[nH]2)C1` (single isomer, unassigned) [Example 1a, cis-3-(3-((5-fluoro-1,1-dioxido-2,3-dihydrobenzo[d]isothiazol-6-yl)amino)-1H-pyrazol-5-yl)cyclopentyl isopropylcarbamate], for which the concentration for half-maximal inhibition (IC50) against CDK1/Cyclin B1 is 860 nM; on CDK2/Cyclin E1 it was 22 nM.
